Entries after “also recorded” stand apart in the source; their conditions may differ. No end group written: not given here.
Tests used:
BALB/c (H-2d) mice [1] = assay: β-Galactosidase-specific T-cell proliferation of spleen and regional lymph node cells of immunized mice (Example 7); assay type: in vivo
Procedure: The cells were restimulated in vitro with various concentrations of soluble β-galactosidase for four days. The results are shown as average cpm subtracted from the background values for unstimulated cells from groups of three. The SEM is depicted by vertical lines.
Lymph nodes located below the lower jaw and the spleens were removed and put together for the analysis of the cellular immune responses. The cells were grown in RPMI 1640 supplemented by 10% fetal calf serum, 10 U/ml penicillin, 50 μg/ml streptomycin, 5×10^−5 M 2-mercaptoethanol and 1 mM L-glutamine (GIBCO BRL, Karlsruhe, Germany) and stored at 37° C. in a moist atmosphere with 5% CO2. The suspensions of lymph node and spleen cells were adjusted to 5×10^6 cells/ml in complete medium and put in a flat-bottomed 96-well microtiter plate (Nunc) with 100 μl/well, and the plates were incubated in the presence of various concentrations of soluble β-galactosidase for 4 days. Each concentration was tested in groups of three. During the last 18 hours of the incubation, 1 ρCi of [^3H]thymidine (Amersham International, Freiburg, Germany) was added to each well. The cells were then harvested on filter paper (Filtermat A; Wallac, Freiburg, Germany) using a cell harvester (Inotech, Wohlen, Switzerland), and the amount of incorporated [^3H]thymidine in the DNA of the proliferated cells was determined with the aid of a […] (Wallac 1450, Micro-Trilux). The results have been shown as the arithmetic mean of the uptake of [^3H]thymidine in cpm.

BALB/c (H-2d) mice [2] = assay: Serum IgE level after immunization (capture ELISA, Example 6); assay type: in vivo; details: MALP-2 i.p. or via the mucous membranes; day 28
Procedure: Mice were immunized intraperitoneally (i.p.) and intranasally (i.n.) either with pure β-galactosidase (40 μg), exclusively MALP-2 or β-galactosidase mixed with MALP-2 (0.5 μg) on days 0, 7 and 14. On day 28 after the first immunization, serum samples were obtained, and the IgE levels were determined by means of a capture ELISA. The results are shown as IgE concentrations (ng/ml).
To determine the total IgE concentration in the serum of immunized and control animals, serial dilutions of the appropriate samples were incubated in microtiter plates which had previously been coated with anti-mouse IgE (100 μl/well) as capture antibody. After blocking with PBS with 1% BSA and 0.05% Tween-20 at room temperature for two hours, a 1:100 dilution of the serum in PBS-Tween was added (100 μl/well) and the plates were incubated at 37° C. for one hour. After rinsing, biotinylated anti-mouse IgE was added and the plates were incubated at 37° C. for a further hour. After rinsing four times, 100 μl of peroxidase-conjugated streptavidin (Pharmingen) were put in the wells, and the plates were incubated at 37° C. for 30 minutes. After rinsing four times, the reactions were developed by means of ABTS in 0.1 M citrate-phosphate buffer (pH 4.35) and a content of 0.01% H2O2. Serial dilutions of purified mouse IgE were used to produce a standard plot.

immunized animals = assay: Tolerability and anti-adjuvant antibodies in immunized animals; details: after intranasal administration of MALP-2 as adjuvant
BALB/c (H-2d) mice [3] = assay type: in vivo; details: mice immunized i.n.; β-gal restimulation
BALB/c (H-2d) mice [4] = assay: Kinetics of β-gal-specific IgG responses in sera of mice immunized i.n. or i.p. (Example 4); assay type: in vivo
Procedure: Groups of animals (n=5) were immunized either i.n. (A) or i.p. (B) with 50 μg of β-gal ( ), β-gal plus 10 μg of CTB ( ), β-gal plus 0.5 μg of MALP-2 ( ) or pure buffer solution ( ). The days of the immunizations (day 0, 14 and 21) are marked by arrows. The results are shown as the reciprocal log2 of the geometric endpoint titer, and the SEM […] is indicated by means of vertical lines.
Six- to eight-week old female BALB/c (H-2d) mice were purchased from Harlan Winkelmann GmbH (Borchen, Germany) and treated in accordance with local and EU directives. Groups each of 5 mice were immunized on day 1, 14 and 21 either with 40 μg of pure β-galactosidase (Boehringer, Mannheim, Germany) with admixture of 0.5 μg of synthetic MALP-2 or 10 μg of cholera toxin B subunit (CTB; ICN Biomedicals Inc., Ohio) as standard adjuvant. For intranasal administration (i.n.), 10 μl were administered into each nostril, while for the i.p. injection β-galactosidase was resuspended with or without MALP-2 in 400, 100 or 100 μl of PBS. Serum samples were taken at various times (day 0, 13, 20 and 30) and stored at −20° C. until the β-galactosidase-specific antibodies were determined. Nunc-Immuno MaxiSorp assay plates with 96 wells (Nunc, Roskilde, Denmark) were coated with 100 μl of β-gal (Boehringer, Mannheim, Germany) with 5 μg/ml in 0.05 M […] (pH 8.2) per well. Serial two-fold dilutions of the sera or lavages in PBS with 1% BSA and 0.05% Tween-20 were added (100 μl/well) and the plates were incubated at 37° C. for 24 hours. After rinsing, biotinylated γ chain-specific goat anti-mouse IgG (Sigma Chemie, Deisenhofen, Germany) was added, and the plates were incubated at 37° C. for a further hour. After rinsing four times, 100 μl of peroxidase-conjugated streptavidin (Pharmingen) were added to the […], and the plates were incubated at 37° C. for 30 minutes. After rinsing four times, the reactions were developed by means of ABTS in 0.1 M citrate-phosphate buffer (pH 4.35) which contained 0.01% H2O2.

S-[2,3-bispalmitoyloxypropyl]cysteinyl-GNNDESNISFKEK ({S‑(2,3-bispalmitoyloxypropyl)Cys}-GNNDESNISFKEK) [MALP-2]
T-cell proliferation / cellular response compared with CTB as adjuvant (BALB/c (H-2d) mice [1]; 0.5 μg MALP-2 versus 10 μg CTB, i.n., p<0.05): statistically significant (p<0.05) increase in T-cell proliferation; also recorded: distinctly higher proliferation
proliferation of lymph node and spleen cells after in vitro restimulation with β-galactosidase (BALB/c (H-2d) mice [1]; i.n. immunization, day 31): efficient proliferation response
proliferation of spleen cells after in vitro restimulation with β-galactosidase (BALB/c (H-2d) mice [1]; i.p. immunization, day 31): further increase in proliferation
serum IgE content (BALB/c (H-2d) mice [2]): does not lead to an increase
anti-MALP-2 antibodies (immunized animals): No anti-MALP-2 antibodies were detectable
IL-10 content in supernatants of spleen cells stimulated in vitro (BALB/c (H-2d) mice [3]): 2.2 ng/mL
kinetics and overall efficacy of antibody responses compared with 10 μg CTB (BALB/c (H-2d) mice [4]; 0.5 μg MALP-2 versus 10 μg CTB, i.n.): very similar
increase of β-galactosidase-specific IgG serum titers (BALB/c (H-2d) mice [4]; i.p., 0.5 μg per animal per dose, versus pure β-galactosidase): 100 fold
titers of specific IgG at the end of the immunization protocol (BALB/c (H-2d) mice [4]; β-galactosidase with 0.5 μg MALP-2 i.n.): above 500,000
titers of specific IgG in serum after a single dose (BALB/c (H-2d) mice [4]; β-galactosidase with 0.5 μg MALP-2 i.n., single dose): > 60,000

Source: patent publication US10905761B2, “Use of a lipopeptide or lipoprotein as an adjuvant in therapeutic or prophylactic vaccinations” (HELMHOLTZ-ZENTRUM FUER INFEKTIONSFORSCHUNG GMBH, priority 2002, dated 2021)
